What was measured:
Assay type in all cases: functional
Rattus norvegicus [1] = assay: Antihypertensive activity rating in conscious SHR after 1 hr post dose at 10 mg/kg (po)
Rattus norvegicus [2] = assay: Antihypertensive activity rating in conscious SHR after 24 hr post dose at 10 mg/kg (po)
Rattus norvegicus [3] = assay: Antihypertensive activity rating in conscious SHR after 6 hr post dose at 10 mg/kg (po)
Rattus norvegicus [4] = assay: Maximum percent decrease in blood pressure in SHR dosed at 10 mg/kg (hour post dose in parentheses)
Rattus norvegicus [5] = assay: Antihypertensive activity rating in conscious SHR after 3 hr post dose at 10 mg/kg (po)
Rattus norvegicus [6] = assay: Antihypertensive activity rating in conscious SHR after 3 hr post dose at 1 mg/kg (po)
Rattus norvegicus [7] = assay: Maximum percent decrease in blood pressure in SHR dosed at 0.3 mg/kg (hour post dose in parentheses)
Rattus norvegicus [8] = assay: Antihypertensive activity rating in conscious SHR after 3 hr post dose at 0.3 mg/kg (po)
Rattus norvegicus [9] = assay: Antihypertensive activity rating in conscious SHR after 6 hr post dose at 1 mg/kg (po)
Rattus norvegicus [10] = assay: Antihypertensive activity rating in conscious SHR after 24 hr post dose at 1 mg/kg (po)
Rattus norvegicus [11] = assay: Antihypertensive activity rating in conscious SHR after 24 hr post dose at 3 mg/kg (po)
Rattus norvegicus [12] = assay: Antihypertensive activity rating in conscious SHR after 1 hr post dose at 3 mg/kg (po)
Rattus norvegicus [13] = assay: Antihypertensive activity rating in conscious SHR after 1 hr post dose at 0.3 mg/kg (po)
Rattus norvegicus [14] = assay: Maximum percent decrease in blood pressure in SHR dosed at 1 mg/kg (hour post dose in parentheses)
Rattus norvegicus [15] = assay: Maximum percent decrease in blood pressure in SHR dosed at 3 mg/kg (hour post dose in parentheses)
Rattus norvegicus [16] = assay: Antihypertensive activity rating in conscious SHR after 6 hr post dose at 0.3 mg/kg (po)
Rattus norvegicus [17] = assay: Antihypertensive activity rating in conscious SHR after 6 hr post dose at 3 mg/kg (po)
Rattus norvegicus [18] = assay: Antihypertensive activity rating in conscious SHR after 1 hr post dose at 1 mg/kg (po)
Rattus norvegicus [19] = assay: Antihypertensive activity rating in conscious SHR after 24 hr post dose at 0.3 mg/kg (po)
Rattus norvegicus [20] = assay: Antihypertensive activity rating in conscious SHR after 3 h post dose at 3 mg/kg (po)
Rattus norvegicus [21] = assay: Effect on blood pressure in renal hypertensive rats dosed at 10 mg/kg after 1 h
Rattus norvegicus [22] = assay: Effect on blood pressure in renal hypertensive rats dosed at 3 mg/kg after 6 h
Rattus norvegicus [23] = assay: Effect on blood pressure (initial) in renal hypertensive rats dosed at 10 mg/kg
Rattus norvegicus [24] = species on record: Rattus norvegicus; assay: Compound was tested for alpha-adrenoceptor blocking activity by its ability to antagonize norepinephrine contraction in the rat thoracic aorta; details: read-out: pA2 (converted)
Rattus norvegicus [25] = assay: Effect on blood pressure in renal hypertensive rats dosed at 10 mg/kg after 6 h
Rattus norvegicus [26] = assay: Effect on blood pressure in renal hypertensive rats dosed at 3 mg/kg after 24 h
Rattus norvegicus [27] = assay: Effect on mean blood pressure (initial) in renal hypertensive rats dosed at 3 mg/kg
Rattus norvegicus [28] = assay: Effect on blood pressure in renal hypertensive rats dosed at 10 mg/kg after 3 h
[29] = Potency ratio in rat thoracic aorta
Rattus norvegicus [30] = assay: Effect on blood pressure in renal hypertensive rats dosed at 3 mg/kg after 3 h
Rattus norvegicus [31] = assay: Effect on blood pressure in renal hypertensive rats dosed at 3 mg/kg after 1 h
Rattus norvegicus [32] = assay: Effect on blood pressure in renal hypertensive rats dosed at 10 mg/kg after 24 h

Row | SMILES | Activity (Rattus norvegicus [1]) | Activity (Rattus norvegicus [2]) | Activity (Rattus norvegicus [3]) | Decrease (Rattus norvegicus [4]) [%] | Activity (Rattus norvegicus [5]) | Activity (Rattus norvegicus [6]) | Activity (Rattus norvegicus [9]) | Activity (Rattus norvegicus [10]) | Activity (Rattus norvegicus [11]) | Activity (Rattus norvegicus [12]) | Decrease (Rattus norvegicus [14]) [%] | Decrease (Rattus norvegicus [15]) [%] | Activity (Rattus norvegicus [17]) | Activity (Rattus norvegicus [18]) | Activity (Rattus norvegicus [20]) | also measured
1 | COc1cc2nc(N3CCN(C(=O)/C=C/c4ccc(OC)c(OC)c4OC)CC3)nc(N)c2cc1OC | 0 | 0 | 1 | 16 | 1 | – | – | – | – | – | – | – | – | – | – | –
2 | COc1cc2nc(N3CCN(C(=O)/C=C/c4cccc(C(F)(F)F)c4)CC3)nc(N)c2cc1OC | – | – | 0 | – | 0 | – | – | – | – | – | – | – | – | – | – | –
3 | COc1cc2nc(N3CCN(C(=O)/C=C/c4cccs4)CC3)nc(N)c2cc1OC | – | – | – | – | – | 1 | 1 | 0 | 0 | 2 | 14 | 24 | 2 | 1 | 1 | Decrease (Rattus norvegicus [7]): 10%; Activity (Rattus norvegicus [8]): 0; Activity (Rattus norvegicus [13]): 0; Activity (Rattus norvegicus [16]): 1; Activity (Rattus norvegicus [19]): 0
4 | COc1cc2nc(N3CCN(C(=O)/C=C/c4ccc(Cl)c(Cl)c4)CC3)nc(N)c2cc1OC | – | – | 0 | – | 0 | – | – | – | – | – | – | – | – | – | – | –
5 | COc1cc2nc(N3CCN(C(=O)/C=C/c4ccccc4C)CC3)nc(N)c2cc1OC | – | 0 | 2 | 23 | 2 | 0 | 0 | 0 | 0 | 1 | 12 | 18 | 1 | 1 | 1 | –
6 | COc1cc2nc(N3CCN(C(=O)/C=C/c4ccsc4)CC3)nc(N)c2cc1OC | – | – | – | – | – | 1 | 1 | 0 | 0 | 2 | 19 | 25 | 1 | 1 | 1 | Decrease (Rattus norvegicus [7]): 11%; Activity (Rattus norvegicus [8]): 1; Activity (Rattus norvegicus [13]): 1; Activity (Rattus norvegicus [16]): 1; Activity (Rattus norvegicus [19]): 0
7 | COc1cc2nc(N3CCN(C(=O)/C=C/c4ccc(C(C)C)cc4)CC3)nc(N)c2cc1OC | – | – | 0 | – | 0 | – | – | – | – | – | – | – | – | – | – | –
8 | COc1cc2nc(N3CCN(C(=O)/C=C/c4ccccc4)CC3)nc(N)c2cc1OC | – | – | – | – | – | 1 | 1 | 0 | 0 | 2 | 14 | 22 | 1 | 1 | 1 | Mean blood pressure (Rattus norvegicus [21]): -12.6 mmHg; Decrease (Rattus norvegicus [7]): 10%; Mean blood pressure (Rattus norvegicus [22]): -7.2 mmHg; Activity (Rattus norvegicus [8]): 0; Mean blood pressure (Rattus norvegicus [23]): 199 mmHg; Kb (Rattus norvegicus [24]): 0.724 nM; Mean blood pressure (Rattus norvegicus [25]): -15.9 mmHg; Mean blood pressure (Rattus norvegicus [26]): -0.1 mmHg; Activity (Rattus norvegicus [13]): 0; Mean blood pressure (Rattus norvegicus [27]): 195 mmHg; Mean blood pressure (Rattus norvegicus [28]): -14.1 mmHg; Activity (Rattus norvegicus [16]): 1; Ratio [29]: 0.07; Activity (Rattus norvegicus [19]): 0; Mean blood pressure (Rattus norvegicus [30]): -6.8 mmHg; Mean blood pressure (Rattus norvegicus [31]): -3.7 mmHg; Mean blood pressure (Rattus norvegicus [32]): -14.1 mmHg
9 | COc1cc2nc(N3CCN(C(=O)/C=C/c4cccc(C)c4)CC3)nc(N)c2cc1OC | 0 | 0 | 1 | 18 | 1 | – | – | – | – | – | – | – | – | – | – | –
10 | COc1cc2nc(N3CCN(C(=O)/C=C/c4ccoc4)CC3)nc(N)c2cc1OC | – | – | – | – | – | – | – | – | 0 | 1 | – | 19 | 1 | – | 1 | –
11 | CO.COc1cc(/C=C/C(=O)N2CCN(c3nc(N)c4cc(OC)c(OC)cc4n3)CC2)cc(OC)c1 | 0 | 0 | 0 | – | 0 | – | – | – | – | – | – | – | – | – | – | –
12 | COc1cc2nc(N3CCN(C(=O)/C=C/c4ccc(C)o4)CC3)nc(N)c2cc1OC.Cl | 1 | 0 | 1 | 22 | 2 | 0 | 0 | 0 | – | – | – | – | – | 0 | – | –
13 | COc1cc2nc(N3CCN(C(=O)/C=C/c4sccc4C)CC3)nc(N)c2cc1OC.Cl | 2 | 1 | 2 | 25 | 2 | 1 | 1 | 0 | – | – | 10 | – | – | 1 | – | –
14 | COc1cc2nc(N3CCN(C(=O)/C(C)=C/c4ccccc4)CC3)nc(N)c2cc1OC.Cl | – | – | – | – | – | 0 | 1 | 0 | 0 | 1 | 12 | 16 | 1 | 0 | 0 | –
15 | COc1cc2nc(N3CCN(C(=O)/C=C/c4ccc(Br)cc4)CC3)nc(N)c2cc1OC.Cl | 0 | 0 | 1 | 12 | 1 | – | – | – | – | – | – | – | – | – | – | –
16 | COc1cc2nc(N3CCN(C(=O)/C=C/c4ccc(C)cc4)CC3)nc(N)c2cc1OC.Cl | – | – | – | – | – | – | – | – | 0 | 0 | – | 10 | 0 | – | 1 | –
17 | COc1cc2nc(N3CCN(C(=O)/C=C/c4ccc(Cl)cc4)CC3)nc(N)c2cc1OC.Cl | – | – | 1 | 10 | 0 | – | – | – | – | – | – | – | – | – | – | –
18 | CCOc1ccccc1/C=C/C(=O)N1CCN(c2nc(N)c3cc(OC)c(OC)cc3n2)CC1.Cl | 0 | – | – | – | 0 | – | – | – | – | – | – | – | – | – | – | –
19 | COc1cc2nc(N3CCN(C(=O)/C=C/c4ccc(C)s4)CC3)nc(N)c2cc1OC.Cl | – | – | – | – | – | – | – | – | 0 | 0 | – | 14 | 0 | – | 1 | –
20 | COc1cccc(/C=C/C(=O)N2CCN(c3nc(N)c4cc(OC)c(OC)cc4n3)CC2)c1.Cl | – | 0 | 1 | 12 | 1 | – | – | – | – | – | – | – | – | – | – | –
21 | COc1cc2nc(N3CCN(C(=O)/C=C/c4ccc(Cl)o4)CC3)nc(N)c2cc1OC.Cl | – | – | – | – | – | – | – | – | 0 | 1 | – | 17 | 1 | – | 1 | –
22 | COc1cc2nc(N3CCN(C(=O)/C(C)=C/c4ccco4)CC3)nc(N)c2cc1OC.Cl | – | – | – | – | – | 0 | 1 | 0 | 0 | 1 | 15 | 16 | 1 | 0 | 0 | –
23 | COc1cc2nc(N3CCN(C(=O)/C=C/c4cccc([N+](=O)[O-])c4)CC3)nc(N)c2cc1OC.Cl | – | – | 0 | – | 0 | – | – | – | – | – | – | – | – | – | – | –
24 | COc1ccccc1/C=C/C(=O)N1CCN(c2nc(N)c3cc(OC)c(OC)cc3n2)CC1.Cl | – | – | 0 | – | 0 | – | – | – | – | – | – | – | – | – | – | –
25 | COc1cc2nc(N3CCN(C(=O)/C=C/c4ccc(Cl)s4)CC3)nc(N)c2cc1OC.Cl | 1 | – | 1 | 12 | 1 | – | – | – | – | – | – | – | – | – | – | –
26 | COc1cc2nc(N3CCN(C(=O)/C(C)=C/c4cccs4)CC3)nc(N)c2cc1OC.Cl | – | – | – | – | – | 1 | 0 | 0 | 0 | 3 | 14 | 34 | 1 | 1 | 1 | –
27 | COc1cc2nc(N3CCN(C(=O)/C=C/c4ccc(OC(C)C)cc4)CC3)nc(N)c2cc1OC.Cl | 0 | 0 | 1 | 19 | 1 | – | – | – | – | – | – | – | – | – | – | –
28 | COc1ccc(/C=C/C(=O)N2CCN(c3nc(N)c4cc(OC)c(OC)cc4n3)CC2)cc1 | 1 | 0 | 2 | 23 | 2 | 1 | 1 | 0 | 0 | 0 | 15 | 20 | 2 | 0 | 1 | –
29 | Cc1ccc(N(CC2=NCCN2)c2cccc(O)c2)cc1 [PHENTOLAMINE] | – | – | – | – | – | – | – | – | – | – | – | – | – | – | – | Kb (Rattus norvegicus [24]): 8.51 nM; Ratio [29]: 0.006
